Results taken from ChEMBL document CHEMBL3120101, “Synthesis, biological evaluation, hydration site thermodynamics, and chemical reactivity analysis of α-keto substituted peptidomimetics for the inhibition of Plasmodium falciparum” (Bioorg Med Chem Lett, 2014).

Columns and labels:
Falcipain 2 = target: T1, Falcipain 2 (Plasmodium falciparum, UniProt Q9N6S8); assay: Inhibition of Plasmodium falciparum cysteine protease falcipain-2
T1 sequence (Q9N6S8 whole entry): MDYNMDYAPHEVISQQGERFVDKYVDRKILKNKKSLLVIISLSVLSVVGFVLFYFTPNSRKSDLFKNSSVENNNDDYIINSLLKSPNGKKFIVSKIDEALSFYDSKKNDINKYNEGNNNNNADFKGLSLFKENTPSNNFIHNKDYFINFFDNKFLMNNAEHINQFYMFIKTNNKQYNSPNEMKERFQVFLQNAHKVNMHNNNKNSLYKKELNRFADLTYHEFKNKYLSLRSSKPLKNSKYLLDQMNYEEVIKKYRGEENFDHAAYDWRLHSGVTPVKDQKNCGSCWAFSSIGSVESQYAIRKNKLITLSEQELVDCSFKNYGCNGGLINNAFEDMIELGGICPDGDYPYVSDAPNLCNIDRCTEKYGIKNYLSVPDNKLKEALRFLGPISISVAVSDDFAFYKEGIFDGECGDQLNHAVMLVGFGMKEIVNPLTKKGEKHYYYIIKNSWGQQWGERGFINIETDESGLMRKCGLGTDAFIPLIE

Plasmodium falciparum = assay: Antimicrobial activity against chloroquine-resistant Plasmodium falciparum W2 assessed as growth inhibition; format: functional, organism-based
[1] = target: T2, Cysteine protease falcipain-3 (Plasmodium falciparum, UniProt Q9NAW4); assay: Inhibition of Plasmodium falciparum cysteine protease falcipain-3
T2 sequence (Q9NAW4 whole entry): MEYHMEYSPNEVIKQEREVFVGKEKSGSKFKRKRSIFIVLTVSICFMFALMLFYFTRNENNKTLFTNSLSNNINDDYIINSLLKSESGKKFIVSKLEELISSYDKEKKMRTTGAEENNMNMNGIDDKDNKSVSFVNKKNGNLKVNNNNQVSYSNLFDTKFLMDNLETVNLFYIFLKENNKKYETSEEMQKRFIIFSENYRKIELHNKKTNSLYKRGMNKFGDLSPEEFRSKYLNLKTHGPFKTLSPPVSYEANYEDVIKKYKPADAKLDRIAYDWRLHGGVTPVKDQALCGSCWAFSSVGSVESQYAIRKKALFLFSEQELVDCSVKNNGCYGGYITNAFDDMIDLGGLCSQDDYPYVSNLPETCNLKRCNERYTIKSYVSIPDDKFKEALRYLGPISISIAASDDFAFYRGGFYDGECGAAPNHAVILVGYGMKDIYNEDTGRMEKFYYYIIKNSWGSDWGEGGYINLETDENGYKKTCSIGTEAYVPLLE

SMILES | IC50 (Falcipain 2) | IC50 (Plasmodium falciparum) | IC50 [1]
O=C(CO)[C@H](CCc1ccccc1)NC(=O)[C@@H]1CCCN1C(=O)OCc1ccccc1 | > 50 µM | > 50 µM | > 50 µM
O=C(CSCCCc1ccccc1)[C@H](CCc1ccccc1)NC(=O)[C@@H]1CCCN1C(=O)OCc1ccccc1 | 48.1 µM | 13.8 µM | > 50 µM
CC(=O)SCC(=O)[C@H](CCc1ccccc1)NC(=O)[C@@H]1CCCN1C(=O)OCc1ccccc1 | > 50 µM | 18.1 µM | 36.4 µM
CC(=O)OCC(=O)[C@H](CCc1ccccc1)NC(=O)[C@@H]1COC(C)(C)N1C(=O)OCc1ccccc1 | > 50 µM | > 50 µM | > 50 µM
CC1(C)OC[C@@H](C(=O)N[C@@H](CCc2ccccc2)C(=O)CO)N1C(=O)OCc1ccccc1 | > 50 µM | > 50 µM | > 50 µM
O=C(N[C@H]1CCCC[C@H]1C(=O)N[C@@H](CCc1ccccc1)C(=O)CO)OCc1ccccc1 | 5.52 µM | > 50 µM | 0.54 µM
O=C(N[C@@H]1CCCC[C@@H]1C(=O)N[C@@H](CCc1ccccc1)C(=O)CO)OCc1ccccc1 | 4.42 µM | 47.6 µM | 0.91 µM
O=C(N[C@H]1CC=CC[C@H]1C(=O)N[C@@H](CCc1ccccc1)C(=O)CO)OCc1ccccc1 | > 50 µM | > 50 µM | 20.2 µM
O=C(N[C@H]1CCC[C@H]1C(=O)N[C@@H](CCc1ccccc1)C(=O)CO)OCc1ccccc1 | > 50 µM | > 50 µM | 23.9 µM
CC(=O)OCC(=O)[C@H](CCc1ccccc1)NC(=O)[C@@H]1Cc2ccccc2CN1C(=O)OCc1ccccc1 | > 50 µM | > 50 µM | > 50 µM
O=C(CO)[C@H](CCc1ccccc1)NC(=O)[C@@H]1Cc2ccccc2CN1C(=O)OCc1ccccc1 | > 50 µM | > 50 µM | > 50 µM
O=C1CCC(NC(=O)OCc2ccccc2)(C(=O)N[C@@H](CCc2ccccc2)C(=O)CO)CC1 | > 50 µM | 23.3 µM | 47.2 µM
CC(=O)OCC(=O)[C@H](CCc1ccccc1)NC(=O)C1(NC(=O)OCc2ccccc2)CCSCC1 | 33.9 µM | > 50 µM | > 50 µM
O=C(NC1(C(=O)N[C@@H](CCc2ccccc2)C(=O)CO)CCSCC1)OCc1ccccc1 | 3.25 µM | 28.2 µM | 8.22 µM
CC(=O)OCC(=O)[C@H](CCc1ccccc1)NC(=O)[C@H](CCc1ccccc1)NC(=O)OCc1ccccc1 | 29.7 µM | > 50 µM | > 50 µM
O=C(N[C@@H](CCc1ccccc1)C(=O)N[C@@H](CCc1ccccc1)C(=O)CO)OCc1ccccc1 | 30.1 µM | 37.2 µM | 11.9 µM
CC(=O)OCC(=O)[C@H](CCc1ccccc1)NC(=O)C1C2C=CC(C2)C1NC(=O)OCc1ccccc1 (stereo partly specified) | > 50 µM | > 50 µM | > 50 µM
O=C(NC1C2C=CC(C2)C1C(=O)N[C@@H](CCc1ccccc1)C(=O)CO)OCc1ccccc1 (stereo partly specified) | 33.6 µM | 47.2 µM | 25.4 µM
O=C(CO)[C@H](CCc1ccccc1)NC(=O)[C@@H]1C[C@@H](O)CN1C(=O)OCc1ccccc1 | 0.08 µM | 7.7 µM | 0.06 µM
O=C(CSCCCc1ccccc1)[C@H](CCc1ccccc1)NC(=O)[C@@H]1C[C@@H](O)CN1C(=O)OCc1ccccc1 | 1.1 µM | 19.6 µM | 0.52 µM
CC(=O)SCC(=O)[C@H](CCc1ccccc1)NC(=O)[C@@H]1C[C@@H](O)CN1C(=O)OCc1ccccc1 | > 50 µM | 18.6 µM | 3.56 µM
O=C(CN1CCOCC1)[C@H](CCc1ccccc1)NC(=O)[C@@H]1C[C@@H](O)CN1C(=O)OCc1ccccc1 | > 50 µM | 10.2 µM | > 50 µM
